Measurements taken from US8987193B2, “Nisin derivatives and the use thereof” (University College Cork—National University of Ireland, Cork, priority 2008, dated 2015).
Ends that are not written are not given here.

How the values were obtained:
[1] = test system: 30 L. monocytogenes and 3 L. innocua strains; assay: Deferred antagonism assay, collection of Listeria strains; type: cell-based; conditions: of 30 L. monocytogenes and 3 L. innocua strains
Description: Deferred antagonism assays were performed by replicating strains on GM17 or GM17 x-gal agar plates and allowing them to grow overnight before overlaying with either GM17/BHI/TS/MH agar (0.75% w/v agar) seeded with the appropriate indicator strain. Zone size was calculated as the diameter of the zone of clearing minus the diameter of bacterial growth (5 mm) For higher throughput screening of N20PXX, XM21VX, XXK22T and XXX banks deferred antagonism assays were performed by replicating strains using a 96 pin replicator (Boekel) or spotting 5 μl of a fresh overnight culture on GM17 agar plates and allowing them to grow overnight. […] Additional sets of indicators were employed to further assess/reassess the bioactivity of a number of strains. […] For well-diffusion assays molten agar was cooled to 48° C. and seeded with the appropriate indicator strain. The inoculated medium was rapidly transferred into sterile Petri plates in 50 ml volumes, allowed to solidify and dried. Wells (4.6 mm in diameter) were then made in the seeded plates. Purified nisin and mutant nisins were resuspended in 0.005% acetic acid, serially diluted, 50 μl volumes were dispensed into the aforementioned wells and the plates incubated at 37° C. overnight. Bioactivity was expressed as arbitrary units/ml (AU/ml) and calculated as the reciprocal of the highest dilution that gave a definite zone multiplied by the conversion factor (i.e. 20 when 50 μl was used) (Ryan et al., 1996).

L. plantarum CBC6 = assay: Deferred antagonism assay; type: cell-based, Lactobacillus plantarum; set-up: key: + = Enhanced bioactivity relative to control; − = Bioactivity equal to or less than control; NA = no activity evident; conditions: producing strain
Outline: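 Producer strains replicated on GM17 or GM17 x-gal agar, grown overnight, then overlaid with 0.75% agar seeded with indicator strain. Zone size = diameter of clearing minus 5 mm growth diameter. Purified nisins tested by well diffusion at 37° C overnight; activity in AU/ml from reciprocal of highest active dilution × 20.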

NisinA K22A (ITSISLCTPGCKTGALMGCNMATATCHCSIHVSK; not fully specified; also: lantibiotic: lanthionine rings and dehydro residues not placed; UniProt P13068 24-57, looked up, variant K22A) [nisin A derivative, hinge substitution K22A]
number of strains with enhanced bioactivity (relative to the control) [1]: 16 | number of strains with equal levels of bioactivity [1]: 17 | Bioactivity relative to control (L. plantarum CBC6): −

NisinA M21G (ITSISLCTPGCKTGALMGCNGKTATCHCSIHVSK; not fully specified; also: lantibiotic: lanthionine rings and dehydro residues not placed; UniProt P13068 24-57, looked up, variant M21G) [nisin A derivative, hinge substitution M21G]
number of strains with enhanced bioactivity (relative to the control) [1]: 10 | number of strains with equal levels of bioactivity [1]: 19 | number of strains with reduced activity [1]: 4 | Bioactivity relative to control (L. plantarum CBC6): −

NisinA M21I (ITSISLCTPGCKTGALMGCNIKTATCHCSIHVSK; not fully specified; also: lantibiotic: lanthionine rings and dehydro residues not placed; UniProt P13068 24-57, looked up, variant M21I) [nisin A derivative, hinge substitution M21I]
number of strains with enhanced bioactivity (relative to the control) [1]: 17 | number of strains with equal levels of bioactivity [1]: 15 | number of strains with reduced activity [1]: 1 | Bioactivity relative to control (L. plantarum CBC6): −

NisinA M21S (ITSISLCTPGCKTGALMGCNSKTATCHCSIHVSK; not fully specified; also: lantibiotic nisin: dehydrated residues and thioether rings not placed; UniProt P13068 24-57, looked up, variant M21S) [nisin A derivative, hinge substitution M21S]
number of strains with enhanced bioactivity (relative to the control) [1]: 26 | number of strains with equal levels of bioactivity [1]: 7 | Bioactivity relative to control (L. plantarum CBC6): −
